The nature of series [1]: Aqueous solubility of compound by HPLC-PDA method. It counts as physicochemical. The conditions noted are these: buffer.
Series [2] is described as follows: Apparent permeability across apical to basolateral side in human Caco-2 cells incubated for 21 days. It counts as ADME, cell-based. The conditions noted are these: time 21 day. For orientation: Caco-2 cells form a polarised layer with tight junctions and transporters.
The nature of series [3]: Apparent permeability across basolateral to apical side in human Caco-2 cells incubated for 21 days. It counts as ADME, cell-based. The conditions noted are these: time 21 day.
The nature of series [4]: Efflux ratio of apparent permeability across basolateral to apical side over apical to basolateral side in human Caco-2 cells. The class given is ADME, cell-based.
Series [5] can be described thus: Elimination half life in Balb/c mouse at 50 mg/kg, po measured upto 24 hrs by LC/MS/MS analysis. It counts as ADME, organism-based. The conditions noted are these: in vivo, read-out: beta t1/2 (converted).
The nature of series [6]: Elimination half life in Balb/c mouse at 5 mg/kg, iv measured upto 24 hrs by LC/MS/MS analysis. The conditions noted are these: in vivo, read-out: beta t1/2 (converted). The class given is ADME, organism-based.
Series [7] in a line: Tmax in Balb/c mouse at 50 mg/kg, po measured upto 24 hrs by LC/MS/MS analysis. It counts as ADME, organism-based. The conditions noted are these: in vivo.
Series [8] in a line: Cmax in Balb/c mouse at 50 mg/kg, po measured upto 24 hrs by LC/MS/MS analysis. It counts as ADME, organism-based. Details: time < 24 hrs, dose 50 mg/kg, route po. The conditions noted are these: in vivo.
The nature of series [9]: Cmax in Balb/c mouse at 5 mg/kg, iv measured upto 24 hrs by LC/MS/MS analysis. The class given is ADME, organism-based. Set-up: dose 5 mg/kg, time < 24 hrs, route iv. The conditions noted are these: in vivo.
Series [10] is described as follows: AUC (0 to t) in Balb/c mouse at 50 mg/kg, po measured upto 24 hrs by LC/MS/MS analysis. It counts as ADME, organism-based. Set-up: dose 50 mg/kg, time < 24 hrs, route po. The conditions noted are these: in vivo.
Series [11] in a line: AUC (0 to t) in Balb/c mouse at 5 mg/kg, iv measured upto 24 hrs by LC/MS/MS analysis. Details: time < 24 hrs, dose 5 mg/kg, route iv. The conditions noted are these: in vivo. The class given is ADME, organism-based.
A short description of series [12]: Oral bioavailability in Balb/c mouse at 50 mg/kg measured upto 24 hrs by LC/MS/MS analysis. The conditions noted are these: in vivo. The class given is ADME, organism-based.
Series [13] in a line: Elimination half life in Sprague-Dawley rat at 50 mg/kg, po measured upto 24 hrs by LC/MS/MS analysis. The class given is ADME, organism-based. The conditions noted are these: in vivo, read-out: beta t1/2 (converted).
The nature of series [14]: Elimination half life in Sprague-Dawley rat at 5 mg/kg, iv measured upto 24 hrs by LC/MS/MS analysis. The class given is ADME, organism-based. The conditions noted are these: in vivo, read-out: beta t1/2 (converted).
A short description of series [15]: Tmax in Sprague-Dawley rat at 50 mg/kg, po measured upto 24 hrs by LC/MS/MS analysis. The class given is ADME, organism-based. The conditions noted are these: in vivo.
Series [16] can be described thus: Cmax in Sprague-Dawley rat at 50 mg/kg, po measured upto 24 hrs by LC/MS/MS analysis. It counts as ADME, organism-based. Details: time < 24 hrs, dose 50 mg/kg, route po. The conditions noted are these: in vivo.
Series [17] in a line: Cmax in Sprague-Dawley rat at 5 mg/kg, iv measured upto 24 hrs by LC/MS/MS analysis. The class given is ADME, organism-based. Details: time < 24 hrs, dose 5 mg/kg, route iv. The conditions noted are these: in vivo.
Series [18] in a line: AUC (0 to t) in Sprague-Dawley rat at 50 mg/kg, po measured upto 24 hrs by LC/MS/MS analysis. It counts as ADME, organism-based. The conditions noted are these: in vivo. Details: dose 50 mg/kg, time < 24 hrs, route po.
Series [19] is described as follows: AUC (0 to t) in Sprague-Dawley rat at 5 mg/kg, iv measured upto 24 hrs by LC/MS/MS analysis. Details: time < 24 hrs, dose 5 mg/kg, route iv. The conditions noted are these: in vivo. The class given is ADME, organism-based.
The nature of series [20]: AUC (0 to infinity) in Sprague-Dawley rat at 50 mg/kg, po measured upto 24 hrs by LC/MS/MS analysis. The class given is ADME, organism-based. Set-up: time < 24 hrs, dose 50 mg/kg, route po. The conditions noted are these: in vivo.
The nature of series [21]: AUC (0 to infinity) in Sprague-Dawley rat at 5 mg/kg, iv measured upto 24 hrs by LC/MS/MS analysis. The class given is ADME, organism-based. Details: time < 24 hrs, dose 5 mg/kg, route iv. The conditions noted are these: in vivo.
Series [22] can be described thus: MRT (0 to infinity) in Sprague-Dawley rat at 50 mg/kg, po measured upto 24 hrs by LC/MS/MS analysis. The class given is ADME, organism-based. The conditions noted are these: in vivo.
A short description of series [23]: MRT (0 to infinity) in Sprague-Dawley rat at 5 mg/kg, iv measured upto 24 hrs by LC/MS/MS analysis. It counts as ADME, organism-based. The conditions noted are these: in vivo.
Series [24] can be described thus: Clearance in Sprague-Dawley rat at 5 mg/kg, iv measured upto 24 hrs by LC/MS/MS analysis. It counts as ADME, organism-based. The conditions noted are these: in vivo.
Series [25] can be described thus: Oral bioavailability in Sprague-Dawley rat at 50 mg/kg measured upto 24 hrs by LC/MS/MS analysis. The class given is ADME, organism-based. The conditions noted are these: in vivo.
The nature of series [26]: Chemical stability of the compound under 4500 +/- 500 lx light condition by measuring compound purity incubated for 10 days by HPLC-PDA method relative to initial purity. The class given is physicochemical. The conditions noted are these: 240 h; time 10 day.
A short description of series [27]: Chemical stability of the compound under 60 degree C high temperature by measuring compound purity incubated for 10 days by HPLC-PDA method analysis relative to initial purity. The class given is physicochemical. The conditions noted are these: 240 h; time 10 day.
Series [28] is described as follows: Chemical stability of the compound under 92.5% humidity by measuring compound purity incubated for 10 days by HPLC-PDA method relative to initial purity. The conditions noted are these: 240 h; time 10 day. The class given is physicochemical.
Series [29] is described as follows: Lipophilicity, log P of the compound in octanol/water incubated for 72 hrs under shaking condition by shake flask based HPLC-PDA method. The class given is physicochemical. The conditions noted are these: 72 h.
A short description of series [30]: Lipophilicity, log D of the compound in octanol/water at pH 2.0 incubated for 72 hrs under shaking condition by shake flask based HPLC-PDA method. The class given is physicochemical. The conditions noted are these: pH 2, 72 h.
Series [31] can be described thus: Lipophilicity, log D of the compound in octanol/water at pH 4.0 incubated for 72 hrs under shaking condition by shake flask based HPLC-PDA method. It counts as physicochemical. The conditions noted are these: pH 4, 72 h.
A short description of series [32]: Lipophilicity, log D of the compound in octanol/water at pH 6.8 incubated for 72 hrs under shaking condition by shake flask based HPLC-PDA method. It counts as physicochemical. The conditions noted are these: pH 6.8, 72 h.
Series [33] is described as follows: Lipophilicity, log D of the compound in octanol/water at pH 7.6 incubated for 72 hrs under shaking condition by shake flask based HPLC-PDA method. The conditions noted are these: pH 7.6, 72 h. It counts as physicochemical.
Series [34] deals with Mycobacterium tuberculosis. Nature of the series: Antibacterial activity against Mycobacterium tuberculosis H37Rv BALB/c mouse model assessed as reduction in CFU in lungs at 25 mg/kg via oral gavage for 30 days (reference value: 5.92 +/-0.29). The conditions noted are these: time 30 day. The class given is functional.
For series [35], the system named is Mycobacterium tuberculosis. Briefly: Antibacterial activity against Mycobacterium tuberculosis H37Rv BALB/c mouse model assessed as reduction in delta CFU in lungs at 25 mg/kg via oral gavage for 30 days. The class given is functional. The conditions noted are these: time 30 day.

Consider four compounds from ChEMBL document CHEMBL5352469, “Solubility-driven optimization of benzothiopyranone salts leading to a preclinical candidate with improved pharmacokinetic properties and activity against Mycobacterium tuberculosis” (Eur J Med Chem, 2023).

SMILES strings stand for the structures. ≈ marks a conversion by molar mass, not a printed value.

Usually solubility stands for how much of the substance goes into solution per volume. What is called Papp A→B is the apparent permeability from the apical to the basolateral side of a cell layer. One may read the Papp B→A as how fast a substance crosses the layer from the basolateral side. In general, efflux ratio refers to the permeability from basolateral to apical divided by that in the opposite direction, in the common usage. For orientation: Tmax means the time from dosing to the highest level. In general, Cmax refers to the peak of the concentration-time curve. The term AUC(0-t) denotes the area under the concentration-time curve up to a stated or last time point. Higher therefore signals high exposure. What is called AUC(0-inf) is total exposure, with the tail of the curve extrapolated. The low end stands for less exposure, the high end for more exposure. Usually MRT inf stands for the average time that molecules of a dose stay in the body. The clearance is the volume of plasma or blood freed of the substance per unit of time. A high value points to a high capacity for elimination. The bioavailability is dose-corrected exposure relative to a reference, in per cent. Low values mean little systemic uptake, high ones much systemic uptake. As a reminder, the logP is the decadic logarithm of the partition coefficient of the neutral form, usually between octanol and water. By logD is commonly meant lipophilicity at a set pH, counting ionised and neutral species. The low end stands for a more hydrophilic compound, the high end for a more lipophilic compound. On to `Cl.O=c1cc(N2CCN(CC3CCCCC3)CC2)sc2c([N+](=O)[O-])cc(C(F)(F)F)cc12`, for which, in series [1] (read-out: solubility), the solubility worked out at 28.1 µg/mL. Further, the Papp A→B in series [2] turned out to be 0.39 ×10⁻⁶ cm/s. For the same compound, the Papp B→A in series [3] came out at 0.14 ×10⁻⁶ cm/s. Moreover, the efflux ratio in [4] turned out to be 0.36. In addition, the half-life was 6.72 h in [5], 7.59 h in series [6], 5.38 h in [13] and 7.92 h in [14]. The Tmax in series [7] was 0.42 h; in [15], 1.67 h. Besides, the maximum concentration (Cmax) is 502 ng/mL in [8], 5990 ng/mL in [9], 163 ng/mL in series [16] and 3490 ng/mL in series [17]. The values for the AUCt in series [10] (24 h) and in series [11] (24 h) were 2251 ng·h/mL and 6434 ng·h/mL, respectively. In series [12] (po, 50 mg/kg, 24 h), the F is recorded as 14.1%. The AUC(0-t) at 24 h in series [18] amounted to 961 ng·h/mL; in series [19], 1890 ng·h/mL. In addition, the AUC(0-inf) is 982 ng·h/mL in [20] and 1940 ng·h/mL in series [21]. In addition, the MRT inf turned out to be 5.13 h in series [22] and 2.52 h in [23]. For the same compound, the clearance in series [24] is 43.6 mL/min/kg. The same compound showed a bioavailability in series [25] of 5.07%. For the same compound, the Stability in series [26] was found to be 99.8%; in [27] it was 100%; in [28] it was 100%. This compound also yielded a logP in [29] of 2.56. The logD is on record as 1.3 in series [30], 3.77 in series [31], more than 4.27 in [32] and more than 4.29 in series [33].
Take `O=C(O)/C=C/C(=O)O.O=C(O)/C=C/C(=O)O.O=C(O)/C=C/C(=O)O.O=c1cc(N2CCN(CC3CCCCC3)CC2)sc2c([N+](=O)[O-])cc(C(F)(F)F)cc12.O=c1cc(N2CCN(CC3CCCCC3)CC2)sc2c([N+](=O)[O-])cc(C(F)(F)F)cc12`: in series [1] (read-out: solubility), the solubility worked out at 132 µg/mL. Moreover, the Papp A→B in series [2] came to 7.79 ×10⁻⁶ cm/s. Further, the Papp B→A in series [3] amounted to 0.11 ×10⁻⁶ cm/s. The half-life in series [5] is 8.03 h; in [6], 6.98 h. In addition, the Tmax in [7] amounted to 0.67 h. Further, the highest concentration (Cmax) is 542 ng/mL in series [8] and 2760 ng/mL in series [9]. Moreover, the AUC(0-t) at 24 h in series [10] (Balb/c) stood at 3440 ng·h/mL; in [11] (Balb/c) it was 1990 ng·h/mL. In [12] (Balb/c), this compound gave a bioavailability of 18.9%.
Take `NNC(=O)c1ccncc1` [ISONIAZID]: the Activity in series [34] was 3.64 log10CFU; in series [35], 3.89 log10CFU.
Regarding `O=c1nc(N2CCN(CC3CCCCC3)CC2)sc2c([N+](=O)[O-])cc(C(F)(F)F)cc12` [MACOZINONE], the solubility in series [1] was found to be 0.11 µg/mL (≈ 0.241 µM).
